This assay deals with RNA polymerase II Serine 5 phosphorylation (Rpb1 CTD), downstream substrate of CDK7. The experiment in a line: Imaging-based cellular RNA PolII Ser5 phosphorylation assay in A549 cells. Type of assay: cell-based, human. As to conditions: challenged with compound for 3 hours; for IC50: Homo sapiens, A549, 3 h, read-out: pRNA polII Ser5 (A549) pIC50 (converted). The source says: Dosing curves were fitted using the following equation to obtain IC50: Y=Bottom+(Top−Bottom)/(1+10^((log IC50−X)*Hill slope)) where X=log10 of the compound concentration; top and bottom can be defined by PC and NC respectively. Imaging-Based Cellular RNA PolII Ser5 Phosphorylation Assay
To evaluate inhibition of CDK7 kinase activity, a 384-well automated imaging assay was used. This assay detects Serine 5 phosphorylation on a unique heptapeptide sequence in the C-terminal domain of Rpb1 subunit of RNA polymerase II, the downstream substrate of CDK7. This heptapeptide sequence is repeated up to 52 times in the CTD of Rpb1.
A549 adenocarcinoma human alveolar basal epithelial cells (ATCC, CCL-185), rabbit Phospho-Rpb1 CTD (Ser5) antibody (D9N51 (Cell Signaling Technology)), DMEM (Sigma), Fetal Bovine Serum (Biowest), L-glutamine (Sigma), Penicillin/Streptomycin (Life Technologies), Sodium Pyruvate (Sigma), Hepes (Sigma), poly-D-lysine coated μclear 384 black plates (Greiner), formaldehyde (PolySciences), D-PBS (Sigma), Methanol (Sigma), Alexa Fluor 488 goat anti rabbit IgG secondary antibody (Life Technologies), HCS CellMask™ Deep Red stain (Life Technologies), Hoechst 33258 (Invitrogen).
RNA Polymerase II Serine 5 phosphorylation was detected using a specific rabbit Phospho-Rpb1 CTD (Ser5) antibody. A549 adenocarcinoma human alveolar basal epithelial cells were seeded in 20 μl medium (DMEM supplemented with 1% Fetal Bovine Serum (heat inactivated 30′ 56° C.), 2 mM L-glutamine, 50 U/ml penicillin 50 μg/ml streptomycin, 1 mM sodium pyruvate and 50 mM hepes) at 1000 cells/well and cultured in poly-D-lysine coated μclear 384 black plates for 20 hours at 37° C. and 5% CO2.
After incubation cells were challenged with compound for 3 hours at 37° C. and 5% CO2. DMSO was used as high control and as low control 10 μM of LDC4297 reference compound was used. 40 nl of test compounds and controls were spotted in cell plates using Echo Liquid Handler (Echo 550, Labcyte). Incubation was followed by 20 minutes fixation with 20 μl 10% formaldehyde at room temperature. Medium/formaldehyde solution was removed, plates were washed 3 times with 30 μl D-PBS (w/o Ca^2+ and Ma^2+) and permeabilization was done by adding 20 μl ice cold methanol for 20 minutes. Cells were washed again 3 times with 30 μl D-PBS and 20 μl blocking buffer (25 ml fetal bovine serum in 500 ml D-PBS) was added for 1 hour.
After removing blocking buffer 20 μl 1/1000 primary antibody rabbit. Phospho-Rpb1 CTD (Ser5) antibody was added which binds to the phosphorylated Serine5 of the heptapeptide sequences in the CTD of Rpb1. Primary antibody was removed, and plates were washed 3 times with 30 μl D-PBS followed by addition of 20 μl 1/2000 Alexa Fluor 488 goat anti rabbit IgG secondary antibody for final detection of Phospho-Rpb1 CTD (Ser5) together with 1/5000 HCS CellMask™ Deep Red stain for membrane staining and 1/5000 Hoechst 33258 for nucleus staining. Last, plates were washed 2 times with 30 μl D-PBS and wells were filled with 40 μL D-PBS, plates were sealed (Thermowell sealing tape) and stored at 4° C. until reading. Plates were read with Opera Phenix (Perkin Elmer) with 10× air objective. Data were calculated and analyzed in Phaedra.
IC50 values were calculated using the following formula:
Average value of all HC's and all LC's are used for normalizations. % Effect=100−(sample−LC)/(HC−LC)×100% Control=(sample/HC)×100
A best-fit curve is fitted by a minimum sum of squares method to the plot of % Control vs. compound concentration. From this an IC50 value can be obtained. An estimate of the slope of the plot in terms of the Hill coefficient is also obtained.

`Cc1nn(C)cc1Nc1ncc2c(n1)CN(C(=O)[C@H]1CCN(C)C[C@@H]1c1ccccc1)[C@H](C)C2` [Compound 86]: the IC50 was 447 nM.
The same measure, in the same setting: the result for `CC(C)N1CC[C@H](C(=O)N2Cc3nc(NC4CCOCC4)ncc3C[C@H]2C)[C@@H](c2ccccc2)C1` (single isomer, unassigned) [Compound 157] reads 178 nM; that for `[2H]C([2H])([2H])c1cccc([C@@H]2CN(C)CC[C@H]2C(=O)N2Cc3nc(NCc4ccn(C)n4)ncc3C[C@H]2C)c1` (relative stereo) [Compound 99], 603 nM; that for `Cc1nn(C)c(C)c1Nc1ncc2c(n1)CN(C(=O)[C@H]1CCN(C)C[C@@H]1c1ccccc1)[C@H](C)C2` [Compound 81], 1350 nM.
Turning to `C[C@@H]1Cc2cnc(Nc3cn(C)nc3C(F)(F)F)nc2CN1C(=O)[C@H]1CCN(C)C[C@@H]1c1ccccc1` [Compound 84], the IC50 was 1120 nM.
Still for that read-out and setting: with `CN1CC[C@H](C(=O)N2Cc3nc(NCc4ccn(C)n4)ncc3[C@@H]3C[C@@H]32)[C@@H](c2ccccc2)C1` [Compound 198] the figure was 234 nM; with `C[C@@H]1Cc2cnc(Nc3ccnc(C4CC4)c3)nc2CN1C(=O)[C@H]1CCN(C)C[C@@H]1c1ccccc1` [Compound 76], about 33.1 nM.
Same read-out and setting: the result for `CC(C)Oc1cccc([C@@H]2CN(C)CC[C@H]2C(=O)N2Cc3nc(NCc4ccn(C)n4)ncc3C[C@H]2C)c1` (relative stereo) [Compound 138a] reads over 10000 nM; that for `Cc1cccc([C@@H]2CN(C)CC[C@H]2C(=O)N2Cc3cc(Nc4cnn(C)c4)ncc3C[C@@H]2C)c1` (single isomer, unassigned) [Compound 179], about 83.2 nM.
On to `C[C@@H]1Cc2cnc(NCc3ccn(C)n3)nc2CN1C(=O)[C@@H]1CCN(C)C[C@H]1c1cccc(C(F)F)c1` (relative stereo) [Compound 123], for which the IC50 was 2400 nM.
As for `C[C@@H]1CN(C)CC[C@H]1C(=O)N1Cc2nc(NCc3ccn(C)n3)ncc2C[C@H]1C` (relative stereo) [Compound 147], the IC50 was 813 nM.
Turning to `[2H]C([2H])([2H])N1CC[C@@H](C(=O)N2Cc3cc(NCc4ccn(C)n4)ncc3C[C@@H]2C)[C@H](c2ccccc2)C1` (single isomer, unassigned) [Compound 178], the IC50 is 3720 nM.
Same read-out and setting: with `Cc1cccc([C@H]2CN(C)CC[C@@H]2C(=O)N2Cc3nc(Nc4ccnc(C)c4)ncc3C[C@H]2C)c1` [Compound 135] the figure was about 20.4 nM.
In the case of `[2H]C([2H])([2H])c1cccc([C@@H]2CN(C)CC[C@H]2C(=O)N2Cc3nc(Nc4cnn(C)c4)ncc3C[C@H]2C)c1` (relative stereo) [Compound 97], the “pRNA polII Ser5 (A549) pIC50” value is given as 6.23.
`C[C@@H]1Cc2cnc(Nc3cnn(C4CCCC4)c3)nc2CN1C(=O)[C@H]1CCN(C)C[C@@H]1c1ccccc1` [Compound 88]: the IC50 was 28.8 nM.
On the same count and under the same terms, the result for `C[C@@H]1Cc2cnc(NCc3ccn(C)n3)nc2CN1C(=O)[C@H]1CCN(C)C[C@@H]1c1cccc(C2CC2)c1` (relative stereo) [Compound 121] reads under 2.45 nM.
Turning to `[2H]C([2H])([2H])c1cccc([C@@H]2CN(C)CC[C@H]2C(=O)N2Cc3nc(Nc4cnn(C)c4)ncc3C[C@H]2C)c1` (relative stereo) [Compound 98], the “pRNA polII Ser5 (A549) pIC50” value is on record as about 7.6.
As for `C[C@@H]1Cc2cnc(Nc3cnn(CC4CC4)c3)nc2CN1C(=O)[C@H]1CCN(C)C[C@@H]1c1ccccc1` [Compound 80], the IC50 was 18.6 nM.
Turning to `[2H]C([2H])([2H])c1cccc([C@H]2CN(C)CC[C@@H]2C(=O)N2Cc3nc(NCc4ccn(C)n4)ncc3C[C@H]2C)c1` (relative stereo) [Compound 100], the IC50 is about 26.3 nM.
The same measure, in the same setting: with `CCO[C@H]1CC[C@H](Nc2ncc3c(n2)CN(C(=O)[C@H]2CCN(C)C[C@@H]2c2ccccc2)[C@H](C)C3)CC1` [Compound 19] the figure was 41.7 nM; with `CCN1CC[C@H](C(=O)N2Cc3nc(NC4CCOCC4)ncc3C[C@H]2C)[C@@H](c2ccccc2)C1` (single isomer, unassigned) [Compound 158], 77.6 nM; with `C[C@H]1Cc2cnc(NC3CCOCC3)nc2[C@H](C)N1C(=O)[C@H]1CCN(C)C[C@@H]1c1ccccc1` [Compound 196], 776 nM.
Take `C[C@@H]1Cc2cnc(N[C@H]3CCOC4(CCCC4)C3)nc2CN1C(=O)[C@H]1CCN(C)C[C@@H]1c1ccccc1` (relative stereo) [Compound 16]: the IC50 was 40.7 nM.
Consider `C[C@@H]1Cc2cnc(Nc3cnn(CC(F)F)c3)nc2CN1C(=O)[C@H]1CCN(C)C[C@@H]1c1ccccc1` [Compound 85], for which the IC50 is about 30.9 nM.
In the case of `CO[C@H]1CC[C@H](Nc2ncc3c(n2)CN(C(=O)[C@H]2CCN(C)C[C@@H]2c2ccccc2)C(C)(C)C3)CC1` (single isomer, unassigned) [Compound 190], the IC50 is 240 nM.
Same read-out and setting: with `CC(C)Oc1cccc([C@H]2CN(C)CC[C@@H]2C(=O)N2Cc3nc(NCc4ccn(C)n4)ncc3C[C@H]2C)c1` (relative stereo) [Compound 138b] the figure was 182 nM; with `C[C@@H]1Cc2cnc(N[C@@H]3COc4ccccc43)nc2CN1C(=O)[C@H]1CCN(C)C[C@@H]1c1ccccc1` (relative stereo) [Compound 18], 490 nM; with `Cc1c(Nc2ncc3c(n2)CN(C(=O)[C@H]2CCN(C)C[C@@H]2c2ccccc2)[C@H](C)C3)cnn1C` [Compound 87], 661 nM.
The same measure, in the same setting: with `C[C@@H]1Cc2cnc(NC3CCOCC3)nc2CN1C(=O)[C@H]1CCN(C2COC2)C[C@@H]1c1ccccc1` (single isomer, unassigned) [Compound 159] the figure was over 10000 nM.
On the same count and under the same terms, the result for `C[C@@H]1Cc2cnc(NCc3ccn(C)n3)nc2CN1C(=O)[C@H]1CCN(C)C[C@@H]1c1cccc(C(F)F)c1` (relative stereo) [Compound 124] reads about 44.7 nM.
Consider `C[C@@H]1Cc2cnc(N[C@H]3COc4ccccc43)nc2CN1C(=O)[C@H]1CCN(C)C[C@@H]1c1ccccc1` (relative stereo) [Compound 17], for which the IC50 is 363 nM.

Source of the values: patent US12679839B2, “Cyclin-dependent kinase 7 (CDK7) non-covalent inhibitors” (JANSSEN PHARMACEUTICA NV, priority 2020, dated 2026).
